Source: patent US20260125382A1, “COMPOUNDS FOR INHIBITING OR DEGRADING CDK2 AND/OR CDK9 AND MEDICINAL USE THEREOF” (KOREA RESEARCH INSTITUTE OF CHEMICAL TECHNOLOGY, priority 2022, published 2026)

How the values were obtained:
CDK2 = target: T1, CDK2 (Homo sapiens, UniProt P24941); test: CDK protein degradation activity (Western blotting), CDK2; format: cell-based; conditions: MDA-MB-231 cells, 16 hours, Western blot
T1 construct: endogenous in cells; host or cells: MDA-MB-231
Summary of the method: (§1)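 CDK2 and CDK9 protein levels measured by Western blot with densitometry, using tubulin as loading reference. Cells were MDA-MB-231, exposed for 16 h to 100 nM, 1 μM or 10 μM compound or to DMSO.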

CDK9 = target: T2, CDK9 (Homo sapiens, UniProt P50750); test: CDK protein degradation activity (Western blotting), CDK9; format: cell-based; conditions: MDA-MB-231 cells, 16 hours, Western blot
T2 construct: endogenous in cells; host or cells: MDA-MB-231
T2 sequence (P50750 whole entry): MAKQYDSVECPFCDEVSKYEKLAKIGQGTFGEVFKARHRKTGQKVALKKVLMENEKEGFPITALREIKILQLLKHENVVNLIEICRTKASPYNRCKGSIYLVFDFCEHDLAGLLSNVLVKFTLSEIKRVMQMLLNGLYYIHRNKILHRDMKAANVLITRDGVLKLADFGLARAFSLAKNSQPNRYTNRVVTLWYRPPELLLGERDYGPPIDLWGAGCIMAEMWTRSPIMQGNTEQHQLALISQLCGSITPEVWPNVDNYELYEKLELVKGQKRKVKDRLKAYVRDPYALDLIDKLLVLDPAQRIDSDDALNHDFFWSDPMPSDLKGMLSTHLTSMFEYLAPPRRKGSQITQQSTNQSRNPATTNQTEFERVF
Summary of the method: as §1

CDK2/cyclin A = target: T3, CDK2/cyclin A (Homo sapiens, UniProt P24941); test: CDK protein inhibition, KINOMEscan (Eurofins), CDK2/cyclin A; format: binding
T3 construct: purchased Eurofins Scientific

Cc1cccc(C(=O)N[C@H]2C[C@H](n3cnc4c(NCC5CCN(C(=O)CCCCCNC(=O)CNc6ccc7c(c6)C(=O)N([C@@H]6CCC(=O)NC6=O)C7=O)CC5)ncnc43)C2)n1 (stereo in doubt) [Compound 61, N-((1r,3r)-3-(6-(((1-(6-(2-((2-(2,6-dioxopiperidin-3-yl)-1,3-dioxoisoindolin-5-yl)amino)acetamido)hexanoyl)piperidin-4-yl)methyl)amino)-9H-purin-9-yl)cyclobutyl)-6-methylpicolinamide]
Enzyme degradation CDK2 (% remaining) @ 0.1 μM (CDK2): 100%
Enzyme degradation CDK2 (% remaining) @ 1 μM (CDK2): 100%
Enzyme degradation CDK2 (% remaining) @ 10 μM (CDK2): 40%
Enzyme degradation CDK9 (% remaining) @ 0.1 μM (CDK9): 80%
Enzyme degradation CDK9 (% remaining) @ 1 μM (CDK9): 50%
Enzyme degradation CDK9 (% remaining) @ 10 μM (CDK9): 10%
CDK2/cyclin A inhibition (%) (at concentration of 1 μM) (CDK2/cyclin A; 1 μM): 84%

O=C1CCC(N2C(=O)c3cccc(NCC(=O)N4CCC(CN5CCN(c6ccc(Nc7ncnc8c7ncn8[C@H]7C[C@@H](NC(=O)Cc8ccccc8)C7)cc6)CC5)CC4)c3C2=O)C(=O)N1 (some centres unmarked) [Compound 176, N-((1s,3s)-3-(6-((4-(4-((1-((2-(2,6-dioxopiperidin-3-yl)-1,3-dioxoisoindolin-4-yl)glycyl)piperidin-4-yl)methyl)piperazin-1-yl)phenyl)amino)-9H-purin-9-yl)cyclobutyl)-2-phenylacetamide]
Enzyme degradation CDK2 (% remaining) @ 0.1 μM (CDK2): 0/0/0%
Enzyme degradation CDK2 (% remaining) @ 1 μM (CDK2): 0/0/0%
Enzyme degradation CDK2 (% remaining) @ 10 μM (CDK2): 0/0/0%
Enzyme degradation CDK9 (% remaining) @ 0.1 μM (CDK9): 0/0/0%
Enzyme degradation CDK9 (% remaining) @ 1 μM (CDK9): 0/0/0%
Enzyme degradation CDK9 (% remaining) @ 10 μM (CDK9): 0/0/0%
IC50 (CDK2/cyclin A; Table 17, unit inferred): 0.439 µM
